Our source for the Ki values is patent US8586588B2, “Aryl pyridazinone derivatives and their use as H3 receptor ligands” (Cephalon, Inc., priority 2006, dated 2013).

Where “and” joins values, the source holds several entries; their conditions need not be identical. Identical values can stand only once. Counter-ions that a name gives are not always drawn.

Broadly, the Ki is the dissociation constant of the complex between target and ligand, obtained from inhibition or displacement.

One assay deals with T1, human H3 receptor (Homo sapiens, UniProt Q9Y5N1).
T1 construct: expressed in transfected cells
T1 sequence (Q9Y5N1 whole entry): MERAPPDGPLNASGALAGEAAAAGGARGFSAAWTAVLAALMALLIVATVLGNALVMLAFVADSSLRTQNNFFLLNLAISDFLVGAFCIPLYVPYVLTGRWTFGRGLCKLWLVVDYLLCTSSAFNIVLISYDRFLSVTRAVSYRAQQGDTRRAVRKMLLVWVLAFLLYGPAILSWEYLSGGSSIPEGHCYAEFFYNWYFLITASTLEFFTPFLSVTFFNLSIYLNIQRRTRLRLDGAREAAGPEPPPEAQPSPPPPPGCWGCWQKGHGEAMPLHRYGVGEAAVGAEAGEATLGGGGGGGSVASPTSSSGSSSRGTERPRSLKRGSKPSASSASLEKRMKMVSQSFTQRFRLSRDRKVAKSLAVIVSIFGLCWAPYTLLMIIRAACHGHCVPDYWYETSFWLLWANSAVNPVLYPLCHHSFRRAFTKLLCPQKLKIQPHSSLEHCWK
The experiment in a line: Human H3 radioligand binding ([3H]-N-alpha-methylhistamine, CHO cell membranes, SPA). The conditions noted are these: Table B, binding constant as letter class. The method, boiled down: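 Scintillation proximity format: bead-proximal [3H]-N-alpha-methylhistamine (approximately 1 nM final) bound to human H3 receptor in CHO membranes was counted after 4 h at room temperature, light-protected. Buffer was pH 7.4 Tris/MgCl2/BSA; test compounds spanned 0.01 nM-30 μM; 10 μM clobenpropit set non-specific binding.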

The target in assay [1] is T2, rat histamine H3 receptor (Rattus norvegicus, UniProt Q9QYN8).
T2 construct: encoding the entire 445-amino-acid rat histamine H3 receptor; expressed in transfected cells
T2 sequence (Q9QYN8 whole entry): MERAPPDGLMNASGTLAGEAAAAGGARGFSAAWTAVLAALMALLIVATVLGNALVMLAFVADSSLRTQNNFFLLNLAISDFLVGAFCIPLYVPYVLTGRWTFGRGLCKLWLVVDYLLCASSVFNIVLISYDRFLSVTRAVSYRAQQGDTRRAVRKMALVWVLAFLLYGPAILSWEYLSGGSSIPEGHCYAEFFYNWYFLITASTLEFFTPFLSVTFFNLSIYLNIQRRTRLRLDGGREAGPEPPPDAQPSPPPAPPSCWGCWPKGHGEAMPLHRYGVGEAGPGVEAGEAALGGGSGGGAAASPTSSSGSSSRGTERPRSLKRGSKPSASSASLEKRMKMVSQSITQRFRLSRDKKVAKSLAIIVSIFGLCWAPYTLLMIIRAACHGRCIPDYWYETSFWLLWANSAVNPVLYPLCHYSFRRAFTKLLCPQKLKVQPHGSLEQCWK
Briefly: Rat H3 radioligand binding ([3H]-N-alpha-methylhistamine, CHO-A3 cell membranes, SPA). The conditions noted are these: Table B, binding constant as letter class; read-out: rat H3 Ki. The method, boiled down:
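Scintillation proximity displacement of about 1 nM [3H]-N-alpha-methylhistamine, test compound 0.01 nM-30 μM, 4 h, room temperature, in the dark. Receptor source: rat H3 stably transfected into CHO-A3 cells, 10 μg membrane protein, Tris-HCl pH 7.4/MgCl2/BSA buffer. Nonspecific binding defined by 10 μM clobenpropit.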

As to `Cc1cc(-c2ccc(OCCCN3CCC[C@H]3C)cc2)n[nH]c1=O` [Example 122, 4-Methyl-6-{4-[3-((R)-2-methyl-pyrrolidin-1-yl)-propoxy]-phenyl}-2H-pyridazin-3-one], the Ki (on human H3 receptor; in assay [1]) was 0.1 to 100 nM in each case.

With `Cc1cc(-c2ccc(OCCCN3CCCCC3)cc2)n[nH]c1=O` [Example 123, 4-Methyl-6-[4-(3-piperidin-1-yl-propoxy)-phenyl]-2H-pyridazin-3-one], the Ki (at human H3 receptor; in assay [1]) was 0.1 to 100 nM each time.

In the case of `Cn1nc(-c2ccc(OCCCN3CCC[C@H]3CO)cc2)c2c(c1=O)CCCC2` [Example 124, 4-{4-[3-((S)-2-Hydroxymethyl-pyrrolidin-1-yl)-propoxy]-phenyl}-2-methyl-5,6,7,8-tetrahydro-2H-phthalazin-1-one], the inhibitory constant (Ki) (on human H3 receptor; in assay [1]) was 0.1 to 100 nM each time.

Regarding `C[C@@H]1CCCN1CCCOc1cccc(-c2nn(C)c(=O)c3c2CCC3)c1` [Example 125, 2-Methyl-4-{3-[3-((R)-2-methyl-pyrrolidin-1-yl)-propoxy]-phenyl}-2,5,6,7-tetrahydro-cyclopenta[d]pyridazin-1-one], the Ki on human H3 receptor was in the range of 101 to 500 nM; in assay [1], 501 to 1000 nM.

On to `Cn1nc(-c2cccc(OCCCN3CCCCC3)c2)c2c(c1=O)CCC2` [Example 126, 2-Methyl-4-[3-(3-piperidin-1-yl-propoxy)-phenyl]-2,5,6,7-tetrahydro-cyclopenta[d]pyridazin-1-one], for which the Ki on human H3 receptor fell in the range of 101 to 500 nM; in assay [1], 501 to 1000 nM.

As for `Cn1nc(-c2cccc(OCCCN3CCC[C@H]3CO)c2)c2c(c1=O)CCC2` [Example 127, 4-{3-[3-((S)-2-Hydroxymethyl-pyrrolidin-1-yl)-propoxy]-phenyl}-2-methyl-2,5,6,7-tetrahydro-cyclopenta[d]pyridazin-1-one], the inhibitory constant (Ki) (on human H3 receptor; in assay [1]) was 501 to 1000 nM throughout.

Turning to `CC(C)n1ncc(-c2ccc(OCCCN3CCC[C@H]3C)cc2)cc1=O` [Example 128, 2-Isopropyl-5-{4-[3-((R)-2-methyl-pyrrolidin-1-yl)-propoxy]-phenyl}-2H-pyridazin-3-one], the Ki (on human H3 receptor; in assay [1]) was 0.1 to 100 nM each time.

Take `C[C@@H]1CCCN1CCCOc1ccc(-c2ccc(=O)n(-c3ncccn3)n2)cc1` [Example 138, 6-{4-[3-((R)-2-Methyl-pyrrolidin-1-yl)-propoxy]-phenyl}-2-pyrimidin-2-yl-2H-pyridazin-3-one]: the Ki (at human H3 receptor; in assay [1]) was 0.1 to 100 nM throughout.

With `O=c1ccc(-c2ccc(OC3CCN(C4CCCC4)CC3)nc2)n[nH]1` [Example 139, 6-[6-(1-Cyclopentyl-piperidin-4-yloxy)-pyridin-3-yl]-2H-pyridazin-3-one], the Ki (at human H3 receptor; in assay [1]) was 0.1 to 100 nM each time.

Consider `Cn1nc(-c2ccc(OC3CCN(C4CCCC4)CC3)nc2)ccc1=O` [Example 143, 6-[6-(1-Cyclopentyl-piperidin-4-yloxy)-pyridin-3-yl]-2-methyl-2H-pyridazin-3-one], for which the Ki at human H3 receptor was 0.1 to 100 nM; in assay [1], 501 to 1000 nM and 0.1 to 100 nM.

Turning to `Cn1nc(-c2ccc(OC3CCN(C4CCC4)CC3)nc2)ccc1=O` [Example 144, 6-[6-(1-Cyclobutyl-piperidin-4-yloxy)-pyridin-3-yl]-2-methyl-2H-pyridazin-3-one], the Ki (at human H3 receptor; in assay [1]) was 0.1 to 100 nM each time.

Regarding `CC1(C)CC(c2ccc(OC3CCN(C4CCC4)CC3)nc2)=NNC1=O` [Example 148, 6-[6-(1-Cyclobutyl-piperidin-4-yloxy)-pyridin-3-yl]-4,4-dimethyl-4,5-dihydro-2H-pyridazin-3-one], the Ki (at human H3 receptor; in assay [1]) was 0.1 to 100 nM each time.

On to `O=c1ccc(-c2ccc(OC3CCN(C4CCC4)CC3)nc2)nn1-c1ccccn1` [Example 149, 6-[6-(1-Cyclobutyl-piperidin-4-yloxy)-pyridin-3-yl]-2-pyridin-2-yl-2H-pyridazin-3-one], for which the inhibitory constant (Ki) (at human H3 receptor; in assay [1]) was 0.1 to 100 nM throughout.

Regarding `O=c1ccc(-c2ccc(OC3CCN(C4CCC4)CC3)cc2)nn1-c1ccccn1` [Example 157], the Ki (at human H3 receptor; in assay [1]) was 0.1 to 100 nM throughout.

On to `O=C1CCC(c2ccc(OC3CCN(C4CCC4)CC3)cc2)=NN1c1ccccn1` [Example 158, 6-[4-(1-Cyclobutyl-piperidin-4-yloxy)phenyl]-2-pyridin-2-yl-4,5-dihydro-2H-pyridazin-3-one], for which the Ki (at human H3 receptor; in assay [1]) was 0.1 to 100 nM each time.

`O=c1ccc(-c2ccc(O[C@@H]3CCN(C4CCC4)C3)cc2)n[nH]1` [Example 161, 6-[4-((R)-1-Cyclobutyl-pyrrolidin-3-yloxy)-phenyl]-2H-pyridazin-3-one]: the Ki (on human H3 receptor; in assay [1]) was above 1000 nM each time.

As to `O=C1CCC(c2ccc(O[C@@H]3CCN(C4CCCC4)C3)cc2)=NN1` [Example 162, 6-[4-((R)-1-Cyclopentyl-pyrrolidin-3-yloxy)-phenyl]-4,5-dihydro-2H-pyridazin-3-one], the Ki on human H3 receptor was 501 to 1000 nM; in assay [1] it was above 1000 nM.

As for `O=C1NN=C(c2ccc(OC3CCN(C4CCC4)CC3)cc2)C2CCC12` (stereo not shown) [Example 172, 5-[4-(1-Cyclobutyl-piperidin-4-yloxy)-phenyl]-3,4-diaza-bicyclo[4.2.0]oct-4-en-2-one], the Ki (on human H3 receptor; in assay [1]) was 0.1 to 100 nM in each case.

For `C[C@@H]1CCCN1CCCOc1ccc(C2=NNC(=O)CC2)cc1` [Example 178, 6-{4-[3-((R)-2-Methyl-pyrrolidin-1-yl)-propoxy]-phenyl}-4,5-dihydro-2H-pyridazin-3-one], the Ki (at human H3 receptor; in assay [1]) was 0.1 to 100 nM in each case.

As for `C[C@@H]1CCCN1CCCOc1ccc(C2=NN(c3ccccn3)C(=O)CC2)cc1` [Example 183, 6-{4-[3-((R)-2-Methyl-pyrrolidin-1-yl)-propoxy]-phenyl}-2-pyridin-2-yl-4,5-dihydro-2H-pyridazin-3-one], the Ki (at human H3 receptor; in assay [1]) was 0.1 to 100 nM throughout.

As for `CC1CC(=O)N(c2ccccn2)N=C1c1ccc(OC2CCN(C3CCC3)CC2)cc1` (stereo not shown) [Example 193, 6-[4-(1-Cyclobutyl-piperidin-4-yloxy)-phenyl]-5-methyl-2-pyridin-2-yl-4,5-dihydro-2H-pyridazin-3-one], the Ki (on human H3 receptor; in assay [1]) was 0.1 to 100 nM in each case.

`Cc1cc(OCCCN2CCC[C@H]2C)ccc1C1=NNC(=O)CC1` [Example 199, 6-{(R)-2-Methyl-4-[3-(2-methyl-pyrrolidin-1-yl)-propoxy]-phenyl}-4,5-dihydro-2H-pyridazin-3-one]: the Ki (at human H3 receptor; in assay [1]) was 0.1 to 100 nM in each case.

Regarding `Cc1ccc(=O)n(-c2ccc(OCCCN3CCC[C@H]3C)cc2)n1` [Example 201, 6-Methyl-2-{4-[3-((R)-2-methyl-pyrrolidin-1-yl)-propoxy]-phenyl}-2H-pyridazin-3-one], the Ki at human H3 receptor lay within 0.1 to 100 nM; in assay [1] it was 101 to 500 nM.

For `O=c1ccc(-c2ccccc2)nn1-c1ccc(OC2CCN(C3CCC3)CC2)nc1` [Example 203, 2-[6-(1-Cyclobutyl-piperidin-4-yloxy)-pyridin-3-yl]-6-phenyl-2H-pyridazin-3-one], the Ki (at human H3 receptor; in assay [1]) was 0.1 to 100 nM each time.

As for `Cc1onc2c(=O)[nH]nc(-c3ccc(OC4CCN(C5CCC5)CC4)cc3)c12` [Example 205, 4-[4-(1-Cyclobutyl-piperidin-4-yloxy)-phenyl]-3-methyl-6H-isoxazolo[3,4-d]pyridazin-7-one], the Ki (on human H3 receptor; in assay [1]) was 101 to 500 nM throughout.

In the case of `Cc1onc2c(=O)[nH]nc(-c3ccc(OC4CCNCC4)cc3)c12` [Example 206, 3-methyl-4-[4-(piperidin-4-yloxy)phenyl]-6h-isoxazolo-[3,4-d]pyridazin-7-one TFA salt], the Ki (at human H3 receptor; in assay [1]) was above 1000 nM each time.

On to `C[C@@H]1CCCN1CCCOc1ccc2c(c1)CCc1cc(=O)[nH]nc1-2` [Example 209, 8-[3-((R)-2-Methyl-pyrrolidin-1-yl)-propoxy]-5,6-dihydro-2H-benzo[h]cinnolin-3-one], for which the inhibition constant Ki (at human H3 receptor; in assay [1]) was 0.1 to 100 nM throughout.

On to `C[C@@H]1CCCN1CCCOc1ccc2c(c1)CCC1CC(=O)NN=C21` (stereo partly shown) [Example 212, 8-[3-(2-Methyl-pyrrolidin-1-yl)-propoxy]-4,4a,5,6-tetrahydro-2H-benzo[h]cinnolin-3-one], for which the Ki (at human H3 receptor; in assay [1]) was 0.1 to 100 nM throughout.

As for `COc1cc(OCCCN2CCC[C@H]2C)ccc1-c1ccc(=O)[nH]n1` [Example 213, 6-{2-Methoxy-4-[3-((R)-2-methyl-pyrrolidin-1-yl)-propoxy]-phenyl}-2H-pyridazin-3-one], the Ki (at human H3 receptor; in assay [1]) was 101 to 500 nM each time.

Take `C[C@@H]1CCCN1CCCOc1ccc(-c2ccc(=O)n(-c3ccccn3)n2)cc1` [Example 215, 6-{4-[3-((R)-2-Methyl-pyrrolidin-1-yl)-propoxy]-phenyl}-2-pyridin-2-yl-2H-pyridazin-3-one]: the Ki (at human H3 receptor; in assay [1]) was 0.1 to 100 nM throughout.

As for `C[C@@H]1CCCN1CCCOc1ccc(C2=NNC(=O)C(c3ccccn3)C2)cc1` (stereo partly drawn) [Example 216, 6-{4-[3-((R)-2-Methyl-pyrrolidin-1-yl)-propoxy]-phenyl}-4-pyridin-2-yl-4,5-dihydro-2H-pyridazin-3-one], the Ki (at human H3 receptor; in assay [1]) was 0.1 to 100 nM in each case.

On to `C[C@@H]1CCCN1CCCOc1ccc(-c2cc(-c3ccccn3)c(=O)[nH]n2)cc1` [Example 217, 6-{4-[3-((R)-2-Methyl-pyrrolidin-1-yl)-propoxy]-phenyl}-4-pyridin-2-yl-2H-pyridazin-3-one], for which the Ki (at human H3 receptor; in assay [1]) was 0.1 to 100 nM throughout.
